Experimental data taken from patent US20240109934A1, “ANTIBIOTICS WITH IMPROVED DRUG RESISTANCE PROFILE” (priority 2021, published 2024).
Like-named read-outs stand apart in the source and are kept apart here.

Experiments:
[1] = test system: clinical isolates of S. aureus; details: cited from earlier work
[2] = test system: human foreskin fibroblasts (HFF-1); assay: Cell viability, Alamar Blue assay; format: cell-based; details: 72 h incubation, error SEM n = 2, listed as FA(1), read-out: IC50, Mammalian Toxicity in HFF-1
Procedure: Cell Culture. HFF-1 cells were obtained from ATCC. HFF-1 cells were grown in DMEM with 15% fetal bovine serum (Gemini Benchmark, Cat #100-106), 100 U/mL penicillin, and 100 μg/mL streptomycin. All cells were cultured at 37° C. in a 5% CO2 environment. Media was prepared by the University of Illinois School of Chemical Sciences Cell Media Facility.
Cell Viability. Cells were harvested, seeded in a 96 well-plate and allowed to adhere. Cells were treated with investigational compounds in DMSO (1% final concentration). Cells were incubated for 72 h before viability was assessed by the Alamar Blue Assay. Raptinal ([…]) was used as a dead control.

Question: What does the source list for `CC(=O)O[C@H]1C[C@@]2(C)[C@@H](C[C@@H](O)[C@H]3[C@@]4(C)CC[C@@H](O)[C@@H](C)[C@@H]4CC[C@@]32C)/C1=C(\CCC=C(C)C)C(=O)O` [FA, Fusidic acid]?
Answer: S. aureus strains susceptible ([1]; United States, analysis conducted in 2011): 99.7%; MIC range ([1]; staphylococcal clinical isolates that carry the fusC gene): 2 to 64 µg/mL; MIC range ([1]; strains that possess the fusB gene): 4 to 1024 µg/mL; IC50 [2]: 146 ± 11 µM
